{"source": "patent US5026715A", "about": "“2-guanidino-4-arylthiazoles for treatment of peptic ulcers” (Pfizer Inc., priority 1989, dated 1991)", "key": {"[1]": {"tested_on": "ethanol-induced gastric ulceration in rats", "test": "Inhibition of ethanol-induced gastric ulceration in rats (cytoprotective activity)", "assay_type": "in vivo, rat", "details": "dose of 30 mg/kg", "from_the_text": "The in vivo utility of the present compounds as antiulcer agents is also particularly shown by their cytoprotective activity."}, "[2]": {"biological_target": "T1, H^+ / K^+ ATPase isolated from canine gastric mucosa (Canis lupus familiaris, UniProt P50996)", "T1 construct": "ATPase isolated from canine gastric mucosa; from tissue; host or cells: canine gastric mucosa", "T1 sequence (P50996 2-1034 limits assumed)": "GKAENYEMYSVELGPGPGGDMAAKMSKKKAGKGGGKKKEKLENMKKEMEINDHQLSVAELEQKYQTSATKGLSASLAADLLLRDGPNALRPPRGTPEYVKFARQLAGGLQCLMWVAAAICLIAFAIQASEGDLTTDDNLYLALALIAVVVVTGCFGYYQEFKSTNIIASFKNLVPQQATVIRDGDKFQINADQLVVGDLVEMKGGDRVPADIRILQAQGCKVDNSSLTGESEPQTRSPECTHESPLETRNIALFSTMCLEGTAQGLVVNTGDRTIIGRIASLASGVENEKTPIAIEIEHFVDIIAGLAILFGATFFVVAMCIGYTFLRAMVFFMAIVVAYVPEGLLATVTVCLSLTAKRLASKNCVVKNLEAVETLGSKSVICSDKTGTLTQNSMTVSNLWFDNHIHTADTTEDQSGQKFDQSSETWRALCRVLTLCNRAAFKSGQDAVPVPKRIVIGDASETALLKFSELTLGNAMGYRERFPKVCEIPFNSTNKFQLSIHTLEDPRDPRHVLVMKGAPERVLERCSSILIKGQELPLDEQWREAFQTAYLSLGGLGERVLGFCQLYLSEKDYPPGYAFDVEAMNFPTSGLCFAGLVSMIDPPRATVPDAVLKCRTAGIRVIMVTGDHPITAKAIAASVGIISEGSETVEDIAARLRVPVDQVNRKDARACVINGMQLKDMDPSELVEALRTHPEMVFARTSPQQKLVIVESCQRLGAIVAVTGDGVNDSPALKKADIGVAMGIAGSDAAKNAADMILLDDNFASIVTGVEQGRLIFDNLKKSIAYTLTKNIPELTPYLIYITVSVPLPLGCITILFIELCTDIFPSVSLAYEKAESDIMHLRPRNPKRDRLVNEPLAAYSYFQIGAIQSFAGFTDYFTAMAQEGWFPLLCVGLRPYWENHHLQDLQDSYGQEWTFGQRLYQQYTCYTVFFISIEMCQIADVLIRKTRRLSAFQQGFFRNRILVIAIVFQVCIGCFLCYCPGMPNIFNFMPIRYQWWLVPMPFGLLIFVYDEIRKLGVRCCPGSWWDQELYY", "T1 sequence (P33704 whole entry partner)": "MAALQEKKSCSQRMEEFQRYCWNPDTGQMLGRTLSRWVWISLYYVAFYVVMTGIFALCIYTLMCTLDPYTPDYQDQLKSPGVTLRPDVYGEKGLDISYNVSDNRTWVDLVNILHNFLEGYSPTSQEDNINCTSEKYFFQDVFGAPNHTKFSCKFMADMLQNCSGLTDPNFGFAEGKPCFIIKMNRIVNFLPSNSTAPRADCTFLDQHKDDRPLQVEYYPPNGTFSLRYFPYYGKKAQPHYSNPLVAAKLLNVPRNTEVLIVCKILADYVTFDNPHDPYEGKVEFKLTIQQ", "test": "Inhibition of H+/K+ ATPase isolated from canine gastric mucosa", "assay_type": "biochemical", "details": "preincubated 45 minutes at 37° C., pH 7.5, drugs preferably acid activated in 1:1 dimethylsulfoxide:0.02N HCl, 30 minutes, read-out: IC50 (the concentration which inhibits the enzyme to the extent of 50%)", "experimental": "The utility of the present compounds as antiulcer agents is reflected in vitro by their inhibition of H^+ / K^+ ATPase isolated from canine gastric mucosa. The enzyme activity was assayed according to Beil et al., Brit. J. Pharmacol. 82, 651-657 (1984) with slight modifications. The enzyme (1-2 micrograms) was preincubated at 37° C. for 45 minutes with a medium containing 2×10^-3 M MgCl2, 0.05M Tris-Cl buffer (pH 7.5) with or without 0.01M KCl, and the acid activated test drug in a final volume of 0.590 ml. The reaction was started by the addition of […] of ATP (final concentration 3×10^-3 M). The reaction was terminated by adding trichloroacetic acid to a concentration of 4.2%. Liberated inorganic phosphate was determined using Fiske and Subbarow Reducer available commercially (e.g., from Sigma Chemical Co., P.O. Box 14508, St. Louis, Mo. 63178, U.S.A.). In this test the drugs are preferably first acid activated by incubating in 1:1 dimethylsulfoxide:0.02N HCl at 37° C. for 30 minutes."}}, "note": "Counter-ions that a name gives are not always drawn."}
{"compound": "NC(=Nc1nc(-c2ccc[nH]2)cs1)NCc1ccccc1", "note": "[2-(N-benzylguanidino)-4-(pyrrol-2-yl)thiazole]", "values": [{"measurement": "inhibition of ethanol-induced gastric ulceration", "setting": "[1]", "value": 99, "unit": "%"}]}
{"compound": "Cc1cc(-c2csc(NC(=N)N)n2)c[nH]1", "note": "[2-guanidino-4-(2-methylpyrrol-4-yl)thiazole]", "values": [{"measurement": "inhibition of ethanol-induced gastric ulceration", "setting": "[1]", "value": 100, "unit": "%"}, {"measurement": "IC50", "setting": "[2]", "value": 15, "unit": "µM"}]}
{"compound": "N=C(NCc1ccccc1)Nc1nc(-c2c[nH]c3ccccc23)cs1", "note": "[4-(1H-Indol-3-yl)-2-(N-benzyl-N\"-guanidino)thiazole Hydrochloride]", "values": [{"measurement": "IC50", "setting": "[2]", "value": 2, "unit": "µM"}]}
{"compound": "COc1cccc(-c2csc(NC(=N)NCc3ccccc3)n2)c1", "note": "[4-(3-methoxyphenyl)-2-(N-benzylguanidino)thiazole]", "values": [{"measurement": "IC50", "setting": "[2]", "value": 10, "unit": "µM"}]}
{"compound": "N=C(NCc1ccccc1)Nc1nc(-c2c[nH]c3ccc(Cl)cc23)cs1", "note": "[4-(5-chloro-1H-indol-3-yl)-2-(N-benzylguanidino)thiazole]", "values": [{"measurement": "IC50", "setting": "[2]", "value": 0.6, "unit": "µM"}]}
